# Structures can show the parent of a compound that is named as a salt. Where two headings read alike, the source gives them in different places.
# Assays:
# [1] = system: BALB/c, C57BL/6 and CD-1 mice; assay: Mouse strain differences in response to daily treatment with d-amphetamine (force plate actometer); format: in vivo
# Method: Male mice from Charles River Laboratories. BALB/c (n=32), C57BL/6 (n=32), and CD-1 (an outbred strain, n=32), were about 10 weeks old when the treatments began.
# Four currently operating force plate chambers were used (the cylindrical insert was not present).
# For each type of mouse, 4 dose groups were formed so that 8 mice of each strain received either saline, 1.0, 2.5 or 5.0 mg/kg d-amphetamine. On five consecutive days the mice received ip injections 1-2 min before being placed in the recording chambers for 30 min. Immediately before the drug session each mouse received a 30-min recording session preceded by a saline injection.
# Data were analyzed with a version of OFFLINEP.PAS that divided the session into 9 intervals of 3 min and 24.8 s, instead of 45 frames as in the studies described in the preceding Examples. However, some graphic analyses were carried out with 45 frames. Analysis of variance was used to assess the effects of strain, dose, time within a session, and days of treatment (i.e., a 3×4×9×5 factorial design).
# male Sprague-Dawley rats = assay: Instrument-scored stereotypies induced by d-amphetamine in rats (force plate actometer); format: in vivo, rat
# Method: The subjects were male Sprague-Dawley rats about 4 months old at the time of the treatments. Nine rats received amphetamine injections and 8 separate rats got physiological saline injections. These rats weighed about 350 g each and were obtained from Harlan Co., Indianapolis, Ind.
# The apparatus was four concurrently operating force plate actometers as described previously.
# Rats in the amphetamine group were injected (ip.) with d-amphetamine sulfate 3.0 mg/kg 15 min before being placed in the chambers for 30 min of recording. Amphetamine injections were administered on three separate occasions spaced 2 weeks apart for each amphetamine group rat. Data from the 3rd session, when stereotypies were expected to be intense, were used for the analyses. Rats in the saline group received ip injections of physiological saline before recording sessions on three separate days. Data from the 3rd day were used for comparison with the amphetamine group.
# Data were analyzed with the computer program OFFLINEP.PAS (FIGS. 18A-18C) and with additional techniques available in Systat. The program OFFLINEP.PAS identified bouts of low mobility, defined as periods of no locomotion outside of a 30 mm diameter circle for 10.24 s. Corresponding records of the force variation during the same time frame were stored so that the rhythmic components of behavior could be quantified with Fourier analysis. The basic concept was to define stereotypy as the intensity and rhythm of behavior occurring in “one place” under the influence of a stereotypy-inducing dose of amphetamine and to compare these measures to animals “staying in one place” but not under the influence of a drug.
# BALB/c and C57BL/6 mice = assay: Wall rearing of mice counted by the force plate actometer algorithm; format: in vivo, mouse; details: amphetamine 2.5 mg/kg, 30-min session
# From the text: The preferred force plate actometer of this invention provides data that, when appropriately filtered and processed, provides estimates of the number of wall rears that an animal makes. This is of importance in pharmacology and behavioral genetics studies because some drugs are known to suppress rearing, and genetic endowment influences mouse rearing behavior. It is possible to detect wall rearing because when the mouse rears on hind legs and presses its forepaws against the side of the enclosure a substantial proportion of its body weight is transferred to the wall which is suspended above the force plate. […] Data from four chambers are concurrently expressed as the smoothed Fz values, and these are processed in a stream from the beginning of the session to the end of the session. The rears are quantified according to occurrence, intensity, duration of the rear, and time between the rears.
# The program was validated by comparing the results from a human observer viewing video tapes taken from 30-min sessions of force plate recording for two mice: one BALB/c and one C57BL/6 mouse, two very genetically different mice. In terms of number of rears for the BALB/c mouse the video scored and computer scored wall rears were correlated +0.842 across 30 1-min blocks of the session. […]
# [2] = system: unilaterally 6-hydroxydopamine lesioned and sham rats; assay: Rotational behavior induced by d-amphetamine in rats unilaterally lesioned with 6-hydroxydopamine (Parkinsonism model); format: in vivo, rat; details: d-amphetamine 3.0 mg/kg ip
# Method: These rats met the same specifications as those used in Examples 1 and 2.
# The apparatus was the force plate actometer with the cylindrical insert installed as depicted in FIG. 20. This insert presents the rat with a circular arena in which it can move. Note that neither harness nor tether was used. The rotations were calculated by the computer from the position coordinates derived from the force plate.
# Rats were lesioned with the neurotoxin 6-hydroxydopamine. Surgery was performed under ketamine plus xylazine anesthesia. A Kopf stereotaxic instrument was used to guide the injection cannula to the substantia nigra pars compacta. A sham surgery group received the same surgical procedure but saline instead of toxin. About 2 weeks after surgery and at two week intervals rats received three separate injections of d-amphetamine (3.0 mg/kg, ip, 15 min prior to recording sessions). Data shown here were from one control rat and one lesioned rat for the third drug treatment. Data were analyzed with the OFFLINEP.PAS program (FIGS. 18A-18C).
# [3] = system: CD-1, BALB/c and C57BL/6 mice; details: 2.0 g/kg ip; for locomotor stimulation during the first time block: versus saline control
# Method: The subjects were 12 male mice of each of the three strains: CD-1, BALB/c, and C57BL/6 obtained from Charles River Laboratories.
# The force plate actometer was used as described above.
# The mice were subdivided into groups of 6 each. One group received saline, and the corresponding other group of that strain received a dose of 2.0 g/kg of ethanol in a 20% aqueous solution. This was the first exposure to the chamber for these mice. Within 1-2 min of the ip injection the mice were placed in the chamber and behavior was recorded for 30 min.
# The distance data were divided into 6 blocks of 5 min each, and analysis of variance (3 strains×saline vs drug×6 time blocks) was used to establish the presence of effects.
# male Sprague Dawley rats = assay: Quantification of harmaline-induced tremor in rats (force plate actometer); format: in vivo, rat
# Method: Thirty-two male Sprague Dawley rats from Harlan Co, Indianapolis, Ind., were studied.
# The apparatus was the force plate actometer, described above, with no adjustments or modifications. If one were to use the instrument primarily for tremor studies, it would be possible to “tune” it for such purposes. For example, sessions of recording shorter than 30 min may be preferred and a sampling rate of 100 Hz or more may be desirable.
# The rats were divided into 4 separate groups of 8 rats each. Separate groups received different doses of Harmaline hydrochloride as follows: 0.0 (saline), 4.0, 8.0, and 16.0 mg/kg, ip, 1-2 minutes before being placed in the recording chamber.
# Data from the 30-min sessions were broken into 45 equal-length intervals of 40.96 s (or 2048 samples at a sampling rate of 50 Hz). […] Then, a tremor index was computed for each power spectrum. The tremor index was the difference between the average power in the 0.02-4.980 Hz frequency band and the 5.005-15.015 Hz frequency band of each power spectrum. This calculation emphasizes the peaking of the spectrum in the 5-15 Hz frequency band regardless of the absolute power level of the spectrum. A session average of the tremor index was obtained for each rat. Dose-effects statistical analyses were performed with one-way analysis of variance.
# [4] = 3.0 mg/kg ip, Fourier analysis, FIG. 3
compound,measurement,setting,value
"C[C@H](N)Cc1ccccc1 [amphetamine, d-amphetamine sulfate]","distance traveled, ranking of strains","[1]; 2.5 mg/kg ip, CD-1, C57BL/6, BALB/c, FIG. 15",CD-1's were stimulated the most and the BALB/c's the least
same,"spatial statistic, restriction of movements in space","[1]; BALB/c mouse, the two highest doses (2.5 and 5.0 mg/kg)",greater tendency to restrict its movements in space
same,distance traveled across the 5 treatment days,"[1]; C57BL/6 mouse, 2.5 mg/kg ip",showed a sensitization effect
same,movement trajectories (locomotion),"[1]; one C57BL/6 mouse, fifth injection of 5.0 mg/kg ip, FIG. 14 versus saline FIG. 13",locomotor stimulating effect of the drug is apparent
same,"distance traveled, effect of dose","[1]; three mouse strains, saline, 1.0, 2.5, 5.0 mg/kg ip, 5 days, ANOVA dose F(3,84)=73.787, p<0.001, strain-by-dose F(6,84)=9.293, p<0.001, FIG. 15",significant effects
same,"spatial statistic (spatial index), effect of dose","[1]; three mouse strains, saline, 1.0, 2.5, 5.0 mg/kg ip, ANOVA dose F(3,84)=38.192, p<0.001, strain-by-dose F(6,84)=4.991, p<0.001, FIG. 16",significant effects
same,number of low mobility bouts per frame versus saline control,"male Sprague-Dawley rats; 3.0 mg/kg ip 15 min before 30-min session, 3rd injection, FIG. 1",comparable amounts of low mobility bouts
same,stereotypy score (activity during low mobility bouts) versus saline control,"male Sprague-Dawley rats; 3.0 mg/kg ip, 3rd injection, FIG. 2",very active
same,visual observation of stereotypies on removal from the chamber,"male Sprague-Dawley rats; 3.0 mg/kg ip, 3rd injection, n=9","all nine rats were engaged in classical nose poking, sniffing, and head-weaving stereotypies"
same,"difference in spectral power, amphetamine rats above saline controls","male Sprague-Dawley rats; 3.0 mg/kg ip, FIG. 3 versus FIG. 4, controls show no 10-Hz peak",10-20 db
same,frequency range of strong rhythmicity in power spectra of low mobility bouts,male Sprague-Dawley rats; [4],8-11 Hz
same,low frequency power in power spectra of low mobility bouts,male Sprague-Dawley rats; [4],distinctive lack of low frequency power below about 0.5 Hz
same,mean number of wall rears,"BALB/c and C57BL/6 mice; BALB/c mice, untreated mean 92.5 rears",3.75 rears/session
same,mean number of wall rears,"BALB/c and C57BL/6 mice; C57BL/6 mice, untreated mean 70.8 rears",3.5 rears/session
same,"rotational behavior, movement tracings","[2]; one 6-OHDA lesioned rat, FIG. 8",robust rotational behavior
same,rotations to the right in 30-min session,"[2]; one 6-OHDA lesioned rat, third treatment, FIG. 10",62 rotations
same,bouts of high activity with low mobility (stereotypy score),"[2]; one 6-OHDA lesioned rat, third treatment, FIG. 12",four
same,"locomotion, movement tracings","[2]; one unlesioned control rat, FIG. 7",very little locomotion
same,stereotypy score,"[2]; one unlesioned control rat, frame 14 to end of session, FIG. 11",250-300
same,leftward rotations at the beginning of the session,"[2]; one unlesioned control rat, third treatment, FIG. 9",12 rotations
CCO [ethanol],"distance traveled, strain-by-ethanol interaction","[3]; ANOVA F(2,30)=3.257, p=0.05",significant strain-by-ethanol interaction
same,"distance traveled, time-by-ethanol interaction","[3]; ANOVA F(5,150)=7.629, p<0.001",significant-time-by-ethanol interaction
same,locomotor stimulation during the first time block,[3]; BALB/c strain,greater amount of ethanol related locomotor stimulation
same,"proportional increase in activity, BALB/c versus other strains","[3]; BALB/c, early in session",greatest proportional increase in activity
same,locomotor stimulation during the first time block,[3]; CD-1 strain,least stimulation
same,distance traveled versus saline treated mice,"[3]; three mouse strains, 30 min in 5-min blocks, FIG. 17",initially stimulated
"COc1ccc2c3c([nH]c2c1)C(C)=NCC3.Cl [harmaline, Harmaline hydrochloride]",effect of dose on tremor index,"male Sprague Dawley rats; rats, 0, 4.0, 8.0, 16.0 mg/kg ip, session average, one-way ANOVA F (3,28)=5.090, p=0.006, FIG. 6",statistically significant
same,latency to the first bout of low mobility,"male Sprague Dawley rats; rats, 0-16.0 mg/kg ip, F(2,28)=3.222, p=0.038",significantly shortened
same,shape of the dose-effect function of the tremor index,"male Sprague Dawley rats; rats, 0-16.0 mg/kg ip, FIG. 6",log linear
same,effect on locomotor activity,"male Sprague Dawley rats; rats, 0-16.0 mg/kg ip, same session, F(3,28)=6.514, p=0.002",dose-relatedly suppressed locomotor activity
same,peaking in the power spectra of Fz force,"male Sprague Dawley rats; rats, the two higher doses (8.0 and 16.0 mg/kg ip), one rat per dose, FIG. 5",pronounced
